Results as given in patent US10556907B2 (AbbVie Inc., priority 2015, dated 2020).
Counter-ions that a name gives are not always drawn.

Columns and labels:
Experiment in all cases: Method 1: intracellular Ca2+ release (FLIPR, Calcium 5) in recombinant CHO-K1 cells
Assay type in all cases: cell-based
[1] = molecular target: T1, human S1PR1 receptor (Homo sapiens, UniProt P21453); conditions: (1): determined with method 1; read-out: S1P1 EC50
T1 construct: host or cells: CHO-K1
How it was run: (§1)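 Agonist EC50; CHO-K1 + Gq/i5 + aequorin; Calcium 5 dye 1 h 37 °C, 45 min RT; serial-dilution compound add; FLIPR read; normalized to phospho-fingolimod.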

[2] = molecular target: T2, human S1PR4 receptor (Homo sapiens, UniProt O95977); conditions: (1): determined with method 1; read-out: S1P4 EC50
T2 construct: host or cells: CHO-K1
T2 sequence (O95977 1-384): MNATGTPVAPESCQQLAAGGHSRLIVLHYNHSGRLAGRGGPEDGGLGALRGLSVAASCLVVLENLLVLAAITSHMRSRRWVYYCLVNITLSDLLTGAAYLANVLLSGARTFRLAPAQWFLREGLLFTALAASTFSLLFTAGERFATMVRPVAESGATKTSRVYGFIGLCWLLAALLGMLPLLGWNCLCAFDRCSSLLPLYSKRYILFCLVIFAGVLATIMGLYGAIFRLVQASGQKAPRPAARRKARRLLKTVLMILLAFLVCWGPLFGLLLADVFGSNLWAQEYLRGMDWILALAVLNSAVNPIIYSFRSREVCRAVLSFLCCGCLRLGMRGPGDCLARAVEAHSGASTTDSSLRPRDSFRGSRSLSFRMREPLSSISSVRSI
How it was run: as §1

[3] = molecular target: T3, human S1PR5 receptor (Homo sapiens, UniProt Q9H228); conditions: agonist potency, determined with method 1 (symbols A-D); read-out: S1P5 EC50 range
T3 construct: host or cells: CHO-K1
T3 sequence (Q9H228 whole entry): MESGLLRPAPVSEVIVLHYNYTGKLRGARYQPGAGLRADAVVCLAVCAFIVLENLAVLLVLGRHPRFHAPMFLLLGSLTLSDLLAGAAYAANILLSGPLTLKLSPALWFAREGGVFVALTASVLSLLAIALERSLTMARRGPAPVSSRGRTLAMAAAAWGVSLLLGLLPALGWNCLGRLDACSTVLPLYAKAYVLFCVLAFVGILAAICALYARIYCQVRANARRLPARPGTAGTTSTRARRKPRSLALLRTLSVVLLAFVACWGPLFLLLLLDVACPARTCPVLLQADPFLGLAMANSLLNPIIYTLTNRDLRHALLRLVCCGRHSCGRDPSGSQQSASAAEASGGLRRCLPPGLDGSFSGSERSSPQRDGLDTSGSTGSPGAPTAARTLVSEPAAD
How it was run: as §1

T1 sequence (P21453 whole entry): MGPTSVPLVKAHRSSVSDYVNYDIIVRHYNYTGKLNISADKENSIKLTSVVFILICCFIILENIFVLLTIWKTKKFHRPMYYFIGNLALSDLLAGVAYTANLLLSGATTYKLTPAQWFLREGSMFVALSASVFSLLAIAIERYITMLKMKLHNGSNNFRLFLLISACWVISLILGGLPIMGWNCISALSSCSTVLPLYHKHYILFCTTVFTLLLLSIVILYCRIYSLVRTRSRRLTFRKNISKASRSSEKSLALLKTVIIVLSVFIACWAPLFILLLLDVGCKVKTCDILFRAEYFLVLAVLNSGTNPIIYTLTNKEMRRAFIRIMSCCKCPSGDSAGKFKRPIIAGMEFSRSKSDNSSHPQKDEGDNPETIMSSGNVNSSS

Row | EC50 [1] | EC50 [2] | EC50 [3] | Compound
1 | > 1000 nM | > 1000 nM | 1000 to 10000 nM | O=C(O)CN1CCc2nc(Cc3c(F)cccc3F)ncc2C1 [Compound 26, 2-(2-(2,6-difluorobenzyl)-7,8-dihydropyrido[4,3-d]pyrimidin-6(5H)-yl)acetic acid]
2 | > 1000 nM | > 1000 nM | 10 to 100 nM | O=C(O)CN1CCc2nc(-c3ccc(OCc4cccc(F)c4)cc3)ncc2C1 [Compound 27, 2-(2-(4-((3-fluorobenzyl)oxy)phenyl)-7,8-dihydropyrido[4,3-d]pyrimidin-6(5H)-yl)acetic acid]
3 | > 1000 nM | < 1000 nM | 10 to 100 nM | O=C(O)CN1CCc2nc(-c3ccc(OCc4cccc(F)c4F)cc3)ncc2C1 [Compound 28, 2-(2-(4-((2,3-difluorobenzyl)oxy)phenyl)-7,8-dihydropyrido[4,3-d]pyrimidin-6(5H)-yl)acetic acid]
4 | > 1000 nM | > 1000 nM | 100 to 1000 nM | O=C(O)CN1CCc2nc(-c3ccc(OCc4ccc(Cl)cc4)cc3)ncc2C1 [Compound 29, 2-(2-(4-((4-chlorobenzyl)oxy)phenyl)-7,8-dihydropyrido[4,3-d]pyrimidin-6(5H)-yl)acetic acid]
5 | > 1000 nM | > 1000 nM | 100 to 1000 nM | O=C(O)CN1CCc2nc(-c3ccc(OCc4cc(F)cc(F)c4)cc3)ncc2C1 [Compound 31, 2-(2-(4-((3,5-difluorobenzyl)oxy)phenyl)-7,8-dihydropyrido[4,3-d]pyrimidin-6(5H)-yl)acetic acid]
6 | > 1000 nM | > 1000 nM | 100 to 1000 nM | CCc1cccc(Cl)c1COc1nc2c(cc1F)CN(C1CC(C(=O)O)C1)CC2 (stereo not drawn) [Compound 183, 3-(2-((2-chloro-6-ethylbenzyl)oxy)-3-fluoro-7,8-dihydro-1,6-naphthyridin-6(5H)-yl)cyclobutanecarboxylic acid]
7 | > 1000 nM | > 1000 nM | 1000 to 10000 nM | O=C(O)C1CC(N2CCc3nc(C#Cc4ccccc4)c(F)cc3C2)C1 (stereo not drawn) [Compound 184, 3-(3-fluoro-2-(phenylethynyl)-7,8-dihydro-1,6-naphthyridin-6(5H)-yl)cyclobutanecarboxylic acid]
8 | > 1000 nM | > 1000 nM | 1000 to 10000 nM | O=C(O)C1CC(N2CCc3nc(-c4cccc(OCc5ccccc5)c4)cnc3C2)C1 (stereo not drawn) [Compound 208, 3-(2-(3-(benzyloxy)phenyl)-7,8-dihydropyrido[3,4-b]pyrazin-6(5H)-yl)cyclobutanecarboxylic acid]
9 | > 1000 nM | > 1000 nM | < 10 nM | CC(CC(=O)O)CN1CCc2nc(-c3ccc(OCc4cccc(Cl)c4)cc3)cnc2C1 (stereo not drawn) [Compound 209, 4-(2-(4-((3-chlorobenzyl)oxy)phenyl)-7,8-dihydropyrido[3,4-b]pyrazin-6(5H)-yl)-3-methylbutanoic acid]
10 | > 1000 nM | > 1000 nM | 1000 to 10000 nM | CC(C)(CC(=O)O)CN1CCc2nc(-c3ccc(OCc4cccc(Cl)c4)cc3)cnc2C1 [Compound 211, 4-(2-(4-((3-chlorobenzyl)oxy)phenyl)-7,8-dihydropyrido[3,4-b]pyrazin-6(5H)-yl)-3,3-dimethylbutanoic acid]
11 | > 1000 nM | > 1000 nM | 1000 to 10000 nM | CC(C)(CC(=O)O)CN1CCc2nc(-c3ccc(OCc4cccc(Cl)c4)cc3)ncc2C1 [Compound 216, 4-(2-(4-((3-chlorobenzyl)oxy)phenyl)-7,8-dihydropyrido[4,3-d]pyrimidin-6(5H)-yl)-3,3-dimethylbutanoic acid]
12 | > 1000 nM | > 1000 nM | 100 to 1000 nM | CC(C)(CC(=O)O)CN1CCc2nc(-c3ccc(OCc4ccc(Cl)c(Cl)c4)cc3)ncc2C1 [Compound 217, 4-(2-(4-((3,4-dichlorobenzyl)oxy)phenyl)-7,8-dihydropyrido[4,3-d]pyrimidin-6(5H)-yl)-3,3-dimethylbutanoic acid]
13 | > 1000 nM | > 1000 nM | < 10 nM | CC(CC(=O)O)CN1CCc2nc(-c3ccc(CCc4ccc(Cl)cc4)cc3F)ncc2C1 (stereo not drawn) [Compound 255, 4-(2-(4-(4-chlorophenethyl)-2-fluorophenyl)-7,8-dihydropyrido[4,3-d]pyrimidin-6(5H)-yl)-3-methylbutanoic acid]
14 | > 1000 nM | > 1000 nM | < 10 nM | Cc1cc(-c2ncc3c(n2)CCN(CC(C)CC(=O)O)C3)ccc1OCc1cccc(F)c1F (stereo not drawn) [Compound 256, 4-(2-(4-((2,3-difluorobenzyl)oxy)-3-methylphenyl)-7,8-dihydropyrido[4,3-d]pyrimidin-6(5H)-yl)-3-methylbutanoic acid]
15 | > 1000 nM | > 1000 nM | 10 to 100 nM | Cc1cc(-c2ncc3c(n2)CCN(C[C@@H](C)CC(=O)O)C3)ccc1OCc1ccccc1 [Compound 261, (S)-4-(2-(4-(benzyloxy)-3-methylphenyl)-7,8-dihydropyrido[4,3-d]pyrimidin-6(5H)-yl)-3-methylbutanoic acid]
16 | > 1000 nM | > 1000 nM | 10 to 100 nM | Cc1cc(-c2ncc3c(n2)CCN(CC(C)CC(=O)O)C3)ccc1OCc1ccccc1Cl (stereo not drawn) [Compound 262, 4-(2-(4-((2-chlorobenzyl)oxy)-3-methylphenyl)-7,8-dihydropyrido[4,3-d]pyrimidin-6(5H)-yl)-3-methylbutanoic acid]
17 | > 1000 nM | > 1000 nM | 10 to 100 nM | Cc1cccc(COc2ccc(-c3ncc4c(n3)CCN(CC(C)CC(=O)O)C4)c(F)c2)c1 (stereo not drawn) [Compound 264, 4-[2-[2-fluoro-4-(m-tolylmethoxy)phenyl]-7,8-dihydro-5H-pyrido[4,3-d]pyrimidin-6-yl]-3-methyl-butanoic acid 2,2,2-trifluoroacetic acid salt]
18 | > 1000 nM | > 1000 nM | 10 to 100 nM | Cc1cc(-c2ncc3c(n2)CCN(CC(C)CC(=O)O)C3)ccc1OCc1ccc(F)cc1 (stereo not drawn) [Compound 269, 4-[2-[4-[(4-fluorophenyl)methoxy]-3-methyl-phenyl]-7,8-dihydro-5H-pyrido[4,3-d]pyrimidin-6-yl]-3-methyl-butanoic acid 2,2,2-trifluoroacetic acid salt]
19 | > 1000 nM | > 1000 nM | 10 to 100 nM | Cc1cc(-c2ncc3c(n2)CCN(C[C@@H](C)CC(=O)O)C3)ccc1OCc1ccc(Cl)cc1 [Compound 270, (S)-4-(2-(4-((4-chlorobenzyl)oxy)-3-methylphenyl)-7,8-dihydropyrido[4,3-d]pyrimidin-6(5H)-yl)-3-methylbutanoic acid]
20 | > 1000 nM | > 1000 nM | 10 to 100 nM | Cc1ccc(C(F)(F)F)cc1COc1ccc(-c2ncc3c(n2)CCN(CC(C)CC(=O)O)C3)c(F)c1 (stereo not drawn) [Compound 272, 4-[2-[2-fluoro-4-[[2-methyl-5-(trifluoromethyl)phenyl]methoxy]phenyl]-7,8-dihydro-5H-pyrido[4,3-d]pyrimidin-6-yl]-3-methyl-butanoic acid 2,2,2-trifluoroacetic acid salt]
21 | > 1000 nM | > 1000 nM | 10 to 100 nM | Cc1cc(-c2ncc3c(n2)CCN(CC(C)CC(=O)O)C3)ccc1OCc1cccc(C(F)(F)F)c1C (stereo not drawn) [Compound 273, 3-methyl-4-(2-(3-methyl-4-((2-methyl-3-(trifluoromethyl)benzyl)oxy)phenyl)-7,8-dihydropyrido[4,3-d]pyrimidin-6(5H)-yl)butanoic acid]
22 | > 1000 nM | > 1000 nM | 10 to 100 nM | Cc1cc(-c2ncc3c(n2)CCN(CC(C)CC(=O)O)C3)ccc1OCc1c(C)cccc1C (stereo not drawn) [Compound 274, 4-[2-[4-[(2,6-dimethylphenyl)methoxy]-3-methyl-phenyl]-7,8-dihydro-5H-pyrido[4,3-d]pyrimidin-6-yl]-3-methyl-butanoic acid 2,2,2-trifluoroacetic acid salt]
23 | > 1000 nM | > 1000 nM | 10 to 100 nM | Cc1cccc(C)c1COc1ccc(-c2ncc3c(n2)CCN(CC(C)CC(=O)O)C3)c(F)c1 (stereo not drawn) [Compound 276, 4-[2-[4-[(2,6-dimethylphenyl)methoxy]-2-fluoro-phenyl]-7,8-dihydro-5H-pyrido[4,3-d]pyrimidin-6-yl]-3-methyl-butanoic acid 2,2,2-trifluoroacetic acid salt]
24 | > 1000 nM | > 1000 nM | 10 to 100 nM | C[C@@H](CC(=O)O)CN1CCc2nc(-c3ccc(CCc4ccc(Cl)cc4)cc3)ncc2C1 [Compound 278, (S)-4-(2-(4-(4-chlorophenethyl)phenyl)-7,8-dihydropyrido[4,3-d]pyrimidin-6(5H)-yl)-3-methylbutanoic acid]
25 | > 1000 nM | > 1000 nM | 10 to 100 nM | CC(CC(=O)O)CN1CCc2nc(-c3ccc(CCc4ccccc4)cc3F)ncc2C1 (stereo not drawn) [Compound 280, 4-(2-(2-fluoro-4-phenethylphenyl)-7,8-dihydropyrido[4,3-d]pyrimidin-6(5H)-yl)-3-methylbutanoic acid]
26 | > 1000 nM | > 1000 nM | 10 to 100 nM | CC(CC(=O)O)CN1CCc2nc(-c3ccc(/C=C/c4ccc(Cl)cc4F)cc3)ncc2C1 (stereo not drawn) [Compound 282]
